# Measured values: patent US20070093520A1, “Method of treatment of diarrhea-predominant irritable bowel syndrome in a subject” (priority 2005, published 2007)
# Test system: diarrhea-predominant IBS subjects
# Assay: 3007 Study: open-label 52-week safety study, adverse events and withdrawals
# Settings: Overall
structure (smiles),measurement,value
"Cc1nccn1C[C@H]1CCc2c(c3cccc4c3n2CCC4)C1=O [cilansetron, (R)-(−)-4,5,6,8,9,10-hexahydro-10-[(2-methyl-1H-imidazol-1-yl)methyl]-11H-pyrido-[3,2,1-jk]-carbazol-11-one]",TEAE: Atopic Disorders,5 (<1%) n (%)
same,TEAE: Atrial Fibrillation,1 (<1%) n (%)
same,TEAE: Atrioventricular Block First Degree,1 (<1%) n (%)
same,TEAE: Back Injury NOS,3 (<1%) n (%)
same,TEAE: Back Pain,18 (3%) n (%)
same,TEAE: Back Pain Aggravated,3 (<1%) n (%)
same,TEAE: Bacteria Identification and Serology (Excl Mycobacteria),1 (<1%) n (%)
same,TEAE: Basal Cell Carcinoma,6 (1%) n (%)
same,TEAE: Behaviour and Socialisation Disturbances,1 (<1%) n (%)
same,TEAE: Benign Ovarian Tumour*,1 (<1%) n (%)
same,TEAE: Biliary Tract Disorder NOS,1 (<1%) n (%)
same,TEAE: Bilirubin Urine,1 (<1%) n (%)
same,TEAE: Binocular Eye Movement Disorder NOS,1 (<1%) n (%)
same,TEAE: Bladder Disorders NEC,1 (<1%) n (%)
same,TEAE: Bladder Infection NOS,1 (<1%) n (%)
same,TEAE: Bladder Infections and Inflammations,1 (<1%) n (%)
same,TEAE: Bladder Prolapse,1 (<1%) n (%)
same,TEAE: Bladder and Urethral Symptoms,7 (1%) n (%)
same,TEAE: Blood Alkaline Phosphatase NOS Increased,3 (<1%) n (%)
same,TEAE: Blood Bilirubin Increased,4 (<1%) n (%)
same,TEAE: Blood Cholesterol Increased,19 (4%) n (%)
same,TEAE: Blood Creatine Phosphokinase Increased,27 (5%) n (%)
same,TEAE: Blood Creatine Phosphokinase Mb Increased,1 (<1%) n (%)
same,TEAE: Blood Creatinine Increased,4 (<1%) n (%)
same,TEAE: Blood Glucose Increased,2 (<1%) n (%)
same,TEAE: Blood Potassium Increased,1 (<1%) n (%)
same,TEAE: Blood Pressure Increased,5 (<1%) n (%)
same,TEAE: Blood Sodium Increased,1 (<1%) n (%)
same,TEAE: Blood Triglycerides Increased,10 (2%) n (%)
same,TEAE: Blood Uric Acid Increased,2 (<1%) n (%)
same,TEAE: Blood Urine Present,10 (2%) n (%)
same,TEAE: Blood and Lymphatic System Disorders,5 (<1%) n (%)
same,TEAE: Blood in Stool,8 (1%) n (%)
same,TEAE: Bone Density Decreased,1 (<1%) n (%)
same,TEAE: Bone Disorder NOS,1 (<1%) n (%)
same,TEAE: Bone Disorders NEC,3 (<1%) n (%)
same,TEAE: Bone Injury,1 (<1%) n (%)
same,TEAE: Bone Neoplasm Malignant,1 (<1%) n (%)
same,TEAE: Bone Neoplasms Malignant (Excl Sarcomas),1 (<1%) n (%)
same,TEAE: Bone Spur,1 (<1%) n (%)
same,TEAE: Bradyarrhythmia,1 (<1%) n (%)
same,TEAE: Breast Calcifications*,1 (<1%) n (%)
same,TEAE: Breast Cancer NOS*,2 (<1%) n (%)
same,TEAE: Breast Disorder NOS*,1 (<1%) n (%)
same,TEAE: Breast Disorders NEC*,5 (1%) n (%)
same,TEAE: Breast Mass NOS*,3 (<1%) n (%)
same,TEAE: Breast and Nipple Neoplasms Malignant*,2 (<1%) n (%)
same,TEAE: Breath Sounds Decreased,1 (<1%) n (%)
same,TEAE: Breathing Abnormalities,3 (<1%) n (%)
same,TEAE: Bronchitis Acute NOS,3 (<1%) n (%)
same,TEAE: Bronchitis NOS,23 (4%) n (%)
same,TEAE: Bronchopneumonia NOS,1 (<1%) n (%)
same,TEAE: Bronchospasm and Obstruction,4 (<1%) n (%)
same,"TEAE: Bruising, Ecchymosis and Purpura",1 (<1%) n (%)
same,TEAE: Bundle Branch Block Right,1 (<1%) n (%)
same,TEAE: Bunion,2 (<1%) n (%)
same,TEAE: Bursal Disorders,6 (1%) n (%)
same,TEAE: Bursitis,3 (<1%) n (%)
same,TEAE: Calculus Renal NOS,3 (<1%) n (%)
same,TEAE: Calculus Ureteric,1 (<1%) n (%)
same,TEAE: Candida Infections,4 (<1%) n (%)
same,TEAE: Candidal Infection NOS,2 (<1%) n (%)
same,TEAE: Carbohydrate Tolerance Analyses (Incl Diabetes),2 (<1%) n (%)
same,TEAE: Cardiac Auscultatory Investigations,1 (<1%) n (%)
same,TEAE: Cardiac Conduction Disorders,2 (<1%) n (%)
same,TEAE: Cardiac Disorders,16 (3%) n (%)
same,TEAE: Cardiac Fibrillation NOS,1 (<1%) n (%)
same,TEAE: Cardiac Flutter,1 (<1%) n (%)
same,TEAE: Cardiac Murmur NOS,1 (<1%) n (%)
same,TEAE: Cardiac Signs and Symptoms NEC,4 (<1%) n (%)
same,TEAE: Carotid Bruit,1 (<1%) n (%)
same,TEAE: Carpal Tunnel Syndrome,3 (<1%) n (%)
same,TEAE: Cartilage Disorder NOS,1 (<1%) n (%)
same,TEAE: Cartilage Disorders,1 (<1%) n (%)
same,TEAE: Cataract Unilateral,1 (<1%) n (%)
same,TEAE: Cataracts (Excl Congenital),2 (<1%) n (%)
same,TEAE: Cellulitis,1 (<1%) n (%)
same,TEAE: Cerumen Impaction,2 (<1%) n (%)
same,TEAE: Cervical Spasm,1 (<1%) n (%)
same,TEAE: Change in Bowel Habit NOS,1 (<1%) n (%)
same,TEAE: Chapped Lips,1 (<1%) n (%)
same,TEAE: Chest Discomfort,1 (<1%) n (%)
same,TEAE: Chest Pain,7 (1%) n (%)
same,TEAE: Chest Tightness,1 (<1%) n (%)
same,TEAE: Chest Wall Pain,2 (<1%) n (%)
same,TEAE: Cholecystitis and Cholelithiasis,2 (<1%) n (%)
same,TEAE: Cholelithiasis,2 (<1%) n (%)
same,TEAE: Cholesterol Analyses,19 (4%) n (%)
same,TEAE: Colitis (Excl Infective),1 (<1%) n (%)
same,TEAE: Colitis Ischaemic,1 (<1%) n (%)
same,TEAE: Colonic Polyp,1 (<1%) n (%)
same,"TEAE: Congenital, Familial and Genetic Disorders",1 (<1%) n (%)
same,"TEAE: Conjunctival Infections, Irritations and Inflammations",2 (<1%) n (%)
same,TEAE: Conjunctivitis,1 (<1%) n (%)
same,TEAE: Conjunctivitis Allergic,1 (<1%) n (%)
same,TEAE: Connective Tissue Disorders (Excl Le),4 (<1%) n (%)
same,TEAE: Constipation,128 (24%) n (%)
same,TEAE: Contusion,3 (<1%) n (%)
same,TEAE: Cough,11 (2%) n (%)
same,TEAE: Coughing and Associated Symptoms,12 (2%) n (%)
same,TEAE: Cyst NOS,1 (<1%) n (%)
same,TEAE: Cystitis Interstitial,1 (<1%) n (%)
same,TEAE: Cystitis NOS,1 (<1%) n (%)
same,TEAE: Dacryostenosis Acquired,1 (<1%) n (%)
same,TEAE: Deafness NOS,1 (<1%) n (%)
same,TEAE: Dehydration,2 (<1%) n (%)
same,TEAE: Dental Disorders NEC,1 (<1%) n (%)
same,TEAE: Dental Infections - Pathogen Class Unspecified,11 (2%) n (%)
same,TEAE: Dental Pain and Sensation Disorders,3 (<1%) n (%)
same,TEAE: Depression,9 (2%) n (%)
same,TEAE: Depression Aggravated,4 (<1%) n (%)
same,TEAE: Depressive Disorders,13 (2%) n (%)
same,TEAE: Dermal and Epidermal Conditions NEC,5 (<1%) n (%)
same,TEAE: Dermatitis Allergic,1 (<1%) n (%)
same,TEAE: Dermatitis Ascribed to Specific Agent,1 (<1%) n (%)
same,TEAE: Dermatitis Contact,2 (<1%) n (%)
same,TEAE: Dermatitis Medicamentosa,1 (<1%) n (%)
same,TEAE: Dermatitis NOS,1 (<1%) n (%)
same,TEAE: Dermatitis and Eczema,6 (1%) n (%)
same,TEAE: Dermographism,1 (<1%) n (%)
same,TEAE: Diabetes Mellitus (Incl Subtypes),3 (<1%) n (%)
same,TEAE: Diabetes Mellitus Aggravated,2 (<1%) n (%)
same,TEAE: Diabetes Mellitus Non-Insulin-Dependent,1 (<1%) n (%)
same,TEAE: Diaphragmatic Hernias,2 (<1%) n (%)
same,TEAE: Diarrhoea (Excl Infective),39 (7%) n (%)
same,TEAE: Diarrhoea Aggravated,5 (<1%) n (%)
same,TEAE: Diarrhoea Haemorrhagic,2 (<1%) n (%)
same,TEAE: Diarrhoea NOS,31 (6%) n (%)
same,TEAE: Disturbances in Consciousness NEC,4 (<1%) n (%)
same,TEAE: Disturbances in Initiating and Maintaining Sleep,6 (1%) n (%)
same,TEAE: Diverticulitis NOS,2 (<1%) n (%)
same,TEAE: Diverticulum Inflammations,2 (<1%) n (%)
same,TEAE: Dizziness,6 (1%) n (%)
same,TEAE: Drug Hypersensitivity,1 (<1%) n (%)
same,TEAE: Dry Eye NOS,2 (<1%) n (%)
same,TEAE: Dry Mouth,2 (<1%) n (%)
same,TEAE: Dysarthria,1 (<1%) n (%)
same,TEAE: Dysfunctional Uterine Bleeding*,1 (<1%) n (%)
same,TEAE: Dyshidrosis,1 (<1%) n (%)
same,TEAE: Dyskinesias and Movement Disorders NEC,1 (<1%) n (%)
same,TEAE: Dyspepsia,13 (2%) n (%)
same,TEAE: Dyspepsia Aggravated,2 (<1%) n (%)
same,TEAE: Dyspeptic Signs and Symptoms,17 (3%) n (%)
same,TEAE: Dyspnoea NOS,3 (<1%) n (%)
same,TEAE: Dysuria,1 (<1%) n (%)
same,TEAE: ECG Investigations,2 (<1%) n (%)
same,TEAE: Ear Disorders NEC,2 (<1%) n (%)
same,TEAE: Ear Infection NOS,4 (<1%) n (%)
same,TEAE: Ear Infections,5 (<1%) n (%)
same,TEAE: Ear Pain,2 (<1%) n (%)
same,TEAE: Ear and Labyrinth Disorders,10 (2%) n (%)
same,TEAE: Eczema,2 (<1%) n (%)
same,TEAE: Electrocardiogram Qrs Complex Abnormal,1 (<1%) n (%)
same,TEAE: Electrocardiogram T Wave Inversion,1 (<1%) n (%)
same,TEAE: Elevated Cholesterol,6 (1%) n (%)
same,TEAE: Endocrine Disorders,4 (<1%) n (%)
same,TEAE: Endometriosis*,2 (<1%) n (%)
same,TEAE: Enteritis,1 (<1%) n (%)
same,TEAE: Epigastric Discomfort,1 (<1%) n (%)
same,TEAE: Eructation,2 (<1%) n (%)
same,TEAE: Erythema,1 (<1%) n (%)
same,TEAE: Erythemas,1 (<1%) n (%)
same,TEAE: External Ear Disorders NEC,2 (<1%) n (%)
same,TEAE: Eye Disorders,13 (2%) n (%)
same,TEAE: Eye Injuries NEC,1 (<1%) n (%)
same,TEAE: Faecal Abnormality NOS,2 (<1%) n (%)
same,TEAE: Faecal Impaction,1 (<1%) n (%)
same,TEAE: Faecal Incontinence,4 (<1%) n (%)
same,TEAE: Faecal Occult Blood Positive,31 (6%) n (%)
